# Several values for one entry are separate records, joined by “and”; a condition that tells them apart may be missing. Equal values may be shown once. Entries after “also recorded” stand apart in the source; their conditions may differ.
# Assays:
# [1] = test system: P. cynomolgi sporozoite-infected rhesus macaques (hypnozoites, relapse); assay: Radical cure in P. cynomolgi sporozoite-infected rhesus macaques; assay type: in vivo, Plasmodium cynomolgi
# Description: (§1) Sporozoites were harvested from P. cynomolgi-infected mosquitoes, washed with phosphate-buffered saline (PBS), and diluted to 100,000 sporozoites (spz)/ml in PBS. One-milliliter aliquots of sporozoites were prepared and injected into monkeys via intravenous (i.v.) injection.
# (§2) Monkeys were treated according to the schedule shown in Table 1 (stratification of treatment groups is given in the supplemental material). During treatment, monkeys were weighed daily and received the compound via gavage, followed by gastric feeding (weight change during treatment is shown in Table S6 in the supplemental material). Monkeys in the prophylaxis groups (groups 691-proph and 599-proph) were treated ∼20 min after the i.v. sporozoite injection. The other monkeys were treated when all the monkeys in the experiment (except those in the prophylaxis group) were blood-stage patent (at day 11 p.i.). To kill the blood-stage parasites, all monkeys received a 5-day treatment of 7.5 mg/kg of body weight of chloroquine (CQ) (intramuscular [i.m.] injection), during compound dosing. KDU691 was formulated in 0.5% methylcellulose and 0.5% Tween 80 in water. LMV599 was formulated as a solid dispersion in a solution containing 5.6% (wt/wt) Tween 80–44.4% hydroxypropyl methylcellulose (HPMC) E3–38.9% Soluplus–11.1% vitamin E D-alphatocopheryl polyethylene glycol 1000 succinate (TPGS).
# Parasitemia was closely monitored by thin-film analysis. Animals were trained to present for thigh pricks, which was followed by a reward. Thin-film slides were stained with 20% Giemsa stain, and at least 50 fields (±20,000 erythrocytes [RBCs]) were analyzed with a bright-field microscope (×1,200 magnification). As soon as all monkeys other than the prophylactic treatment groups were blood-stage positive, treatment was started as indicated above (Table 1). After the last day of compound dosing, the absence of blood-stage parasites was confirmed by thin smears. From day 23 p.i., monkeys were monitored daily for relapses. The KDU691 radical-cure (group 691-RC) treatment and control groups were monitored until the first relapse. The LMV599 control (group 599-C), radical-cure (group 599-RC), and PQ radical-cure (group PQ-RC) treatment groups were monitored until the second relapse or until day 100 p.i. (whichever came first). At the end of the study, monkeys that had relapsed received a 14-day primaquine treatment, with a final check 2 weeks after the last primaquine dose.
# P. cynomolgi sporozoite production
# A monkey was infected with […] P. cynomolgi M strain blood stage parasites, thawed from a first passage stock (i.e. blood stage parasites from a monkey infected with P. cynomolgi M strain sporozoites). For each batch of sporozoites needed, a single monkey was infected with P. cynomolgi blood stage parasites.
# At day 11 and 12 post infection 9 mL infected blood was collected into a Lithium-heparinised tube. The blood was kept at 38°C and fed approximately 500 three to five days old female Anopheles stephensi mosquitoes Sind-Kasur strain Nijmegen (Nijmegen University Medical Centre St Radboud, Department of Medical Microbiology) using a glass feeder system as described by Ponnudurai et al.. After the second bleed, the monkey was cured by three daily intramuscular injections of 7.5 mg/kg chloroquine, monitored for parasite clearance 24 days after chloroquine treatment and returned to colony.
# Mosquitoes were kept in climate chambers at 25 °C and 80% humidity and were fed 5% D -glucose on cotton pads daily. Seven days after feeding on the infected rhesus blood, oocyst numbers were determined in midguts of ten individuals, using 1% mercurochrome stain. Mosquitoes were given a second (uninfected) blood meal immediately afterwards to promote sporozoite maturation and invasion of the salivary glands. Sporozoites were isolated from the P. cynomolgi infected mosquitoes around day16 after the infected blood meal.
# In vivo monkey infection and treatment procedures […]
# [2] = test system: P. cynomolgi sporozoite-infected rhesus macaques; assay: Causal prophylaxis in P. cynomolgi sporozoite-infected rhesus macaques; assay type: in vivo, Plasmodium cynomolgi; settings: 20 mg/kg oral for 5 days from day 0, 4 monkeys, follow-up until day 102 p.i.
# Description: as §1
# Monkeys were treated according to the schedule shown in Table 1 (stratification of treatment groups is given in the supplemental material). During treatment, monkeys were weighed daily and received the compound via gavage, followed by gastric feeding (weight change during treatment is shown in Table S6 in the supplemental material). […]
# Parasitemia was closely monitored by thin-film analysis. […] Thin-film slides were stained with 20% Giemsa stain, and at least 50 fields (±20,000 erythrocytes [RBCs]) were analyzed with a bright-field microscope (×1,200 magnification). […] From day 23 p.i., monkeys were monitored daily for relapses. The KDU691 radical-cure (group 691-RC) treatment and control groups were monitored until the first relapse. The LMV599 control (group 599-C), radical-cure (group 599-RC), and PQ radical-cure (group PQ-RC) treatment groups were monitored until the second relapse or until day 100 p.i. […]
# The prophylaxis groups were monitored daily until day 22 p.i. From day 22 to day 45 p.i., they were monitored three times a week, and from day 45 to day 105 p.i. (100 days after treatment), they were monitored twice a week. […]
# [3] = Clinical chemistry, hematology, weight and clinical observation of treated monkeys; assay type: in vivo, rhesus macaques (Macaca mulatta); settings: rhesus monkey, in vivo
# Description: as §2
# Blood samples were collected for clinical evaluation and pharmacokinetic (PK) analysis (see Table S2 in the supplemental material).
# When the first relapse was observed, monkeys of the KDU691 experiment were radically cured with primaquine (PQ)/CQ (oral administration of 1.8 mg/kg PQ for 14 days together with i.m. administration of 7.5 mg/kg CQ for the first five days of PQ treatment) to cure both blood stage and liver stage parasites, […]
# The monkeys of the LMV599/PQ experiment were cured with a five day CQ treatment (7.5 mg/kg, i.m. administration) at the first relapse and were monitored until the second relapse after which they were cured with CQ (7.5 mg/kg, intramuscular (i.m.) for five days) plus PQ (1.8 mg/kg for 14 days).
# Table S2: PK and clinical blood sampling schedule in monkeys.
# Groups are named 691 for KDU691 and 599 for LMV599 treatment groups, followed by -C for control group (no compound), -proph for prophylactic treatment (treated immediately after infection), and -RC for radical cure treatment (treated when blood stage positive). […]
# the face and chest areas were very yellow. Therefore the 691-RC group (treated from d11 to d15 pi) was monitored by daily clinical chemistry analysis during dosing to be compared with untreated 691-C. […]
# sampling of the single dose prophylaxis group at day 0, 1, 7 and 100. The lack of aberrant clinical […]
# as radical cure compound, during which also clinical sampling was performed daily. a: only clinical chemistry samples were taken. *: t = 24 sample was taken only on the 1st day of dosing.
# Group name Clin. chem PK sampling PK time points
# Hematology (h post dosing)
# 691-proph 1st and 5th day of dosing t = 0, 1, 4, 6 and 24*
# 691-RC Dailya 1st and 5th day of dosing t = 0, 1, 4, 6 and 24* […]
# 599-RC Daily 1st and 4th day of dosing t = 0, 1, 2, 4 and 24
# Clinical chemistry and hematology
# For the clinical analysis serum from 1 mL of clotted blood was analysed using the Cobas Integra 400 plus fully automated chemistry analyser. The following clinical parameters were determined: Alkaline phosphatase; Alanine Aminotransferase; Albumin: Aspartate aminotransfeasr; Bilirubin; Calcium; Cholesterol; Creatine kinase; Creatinine; C-reactive protein: Iron; Phosphate; Gamma-glutamyl transpeptidase; Glucose; Hemoglobin; Potassium; Lactate dehydrogenase; Sodium; Total protein; Urea Haematological parameters were determined from 1 mL EDTA-blood with a Sysmex XT-2000iV automated system. The following hematological parameters were determined: Basophilic granulocytes; Eosinophilic granulocytes; Erythrocytes; Hematocrit; Leucocytes; Leucocyte differentiation; Lymphocytes; Mean corpusculair hemoglobin; Mean corpusculair hemoglobin concentration; Mean corpusculair volume; Neutrophilic granulocytes; Red cell distribution width; Thrombocytes […]
# Liver tissue samples were excised, dipped in PBS, gently blotted with absorbent paper, dried, weighed and stored at -20 °C until further analysis. […]
smiles,measurement,setting,value
CNC(=O)c1ccc(-c2cnc3cnc(C(=O)N(C)c4ccc(Cl)cc4)cn23)cc1 [KDU691],radical-cure outcome,"[1]; five daily oral doses of 20 mg/kg from day 11 p.i., 20 mg/kg",did not prevent relapse; also recorded: none of the animals treated with KDU691 were radically cured
same,Day p.i. to first relapse,"[1]; group 691-RC, 20 mg/kg oral for 5 days from day 11 p.i. plus CQ, individual monkeys",31 day p.i. and 32 day p.i.
same,"day p.i. to first relapse, group mean ± SD","[1]; group 691-RC, 20 mg/kg oral for 5 days from day 11 p.i., control 25 ± 1.4",31.8 ± 0.5 days p.i.
same,delay to relapse compared to the control group,"[1]; group 691-RC, 20 mg/kg oral for 5 days, P = 0.00912, log rank test",6.8 days
same,Day p.i. to primary parasitemia,"[1]; group 691-RC, individual monkeys, baseline, before dosing started at day 11 p.i.",9 day p.i.
same,causal prophylactic outcome (blood-stage parasitemia),[2],"fully protective; also recorded: completely effective; also recorded: eradicated all liver-stage parasites, including hypnozoites"
same,"weight loss, % of the initial weight",[3],3.5%

# From article PMC4862498, “PI4 Kinase Is a Prophylactic but Not Radical Curative Target in Plasmodium vivax-Type Malaria Parasites” (Antimicrobial Agents and Chemotherapy, 2016)
